Here are results for 83 compounds from the PolyMetriX glass transition set.

Take `*=Nc1cccc(/N=C(\c2ccccc2)c2ccc(C(=*)c3ccccc3)cc2)c1` (repeat unit): the glass transition temperature amounted to 179.00 °C.

`*C#Cc1cc(C(C)(C)C)cc2c3cc(C(C)(C)C)cc(*)c3n(CCCCCCCCCCCCCCCC)c12` (repeat unit) gave a glass transition temperature of 80.00 °C.

The compound `*C#Cc1cccc(C#C[Si](*)(C)C)c1` (repeat unit) showed a glass transition temperature of 50.00 °C.

The compound `*C(=O)c1ccc2c(c1)/C(=N\c1ccc(Oc3cccc(/N=C4/OC(=O)c5ccc(*)cc54)c3)cc1)OC2=O` (repeat unit) showed a glass transition temperature of 253.00 °C.

Turning to `*CC(*)C(=O)NCCC[N+](C)(C)CCCS(=O)(=O)O` (repeat unit), the glass transition temperature was found to be 141.50 °C.

`*CC(*)C(=O)Nc1ccccc1Cl` (repeat unit) showed a glass transition temperature of 63.00 °C.

`*CC(*)C(=O)OC(C)C` (repeat unit) had a glass transition temperature of -5.00 °C.

Regarding `*CC(*)C(=O)OC(CC)CC` (repeat unit), the glass transition temperature is -6.00 °C.

`*CC(*)C(=O)OC12CC3CC(CC(C3)C1)C2` (repeat unit) yielded a glass transition temperature of 183.00 °C.

`*CC(*)C(=O)OC1CC(C)CC(C)(C)C1` (repeat unit) came in with a glass transition temperature of 15.00 °C.

Compound `*CC(*)C(=O)OC1CCCCCCCCCCC1` (repeat unit) returned a glass transition temperature of 37.00 °C.

Regarding `*CC(*)C(=O)OCC(F)(F)C(F)(F)C(F)(F)C(F)(F)C(F)(F)F` (repeat unit), the glass transition temperature is -39.00 °C.

The compound `*CC(*)C(=O)OCC(F)(F)C(F)(F)C(F)(F)F` (repeat unit) gave a glass transition temperature of -30.00 °C.

In turn, `*CC(*)C(=O)OCC(F)(F)C(F)(F)OC(F)(F)C(F)(F)F` (repeat unit) came in with a glass transition temperature of -49.00 °C.

As to `*CC(*)C(=O)OCC(F)(F)F` (repeat unit), the glass transition temperature stood at 3.10 °C.

Take `*CC(*)C(=O)OCC1(CC)COC(c2ccccc2)OC1` (repeat unit): the glass transition temperature worked out at 50.00 °C.

`*CC(*)C(=O)OCCC#N` (repeat unit): the glass transition temperature came out at 4.00 °C.

In turn, `*CC(*)C(=O)OCCC(C)OC` (repeat unit) yielded a glass transition temperature of -56.00 °C.

`*CC(*)C(=O)OCCC(F)(F)C(F)(F)C(F)(F)C(F)(F)C(F)(F)C(F)(F)C(F)(F)C(F)(F)F` (repeat unit) yielded a glass transition temperature of 52.00 °C.

Compound `*CC(*)C(=O)OCCCCCC` (repeat unit) returned a glass transition temperature of -57.00 °C.

In the case of `*CC(*)C(=O)OCCCCCCC` (repeat unit), the glass transition temperature is -60.00 °C.

Turning to `*CC(*)C(=O)OCCCCCCCCCCCOc1ccc(C(=O)Oc2ccc(-c3ccc(OC(C)CCCCCC)cc3)cc2)cc1` (repeat unit), the glass transition temperature was determined as 50.00 °C.

The compound `*CC(*)C(=O)OCCCCCCCOC(=O)c1ccc(OC(=O)c2ccc(C#N)cc2)cc1` (repeat unit) returned a glass transition temperature of 20.00 °C.

`*CC(*)C(=O)OCCCCCOC(=O)c1ccc(OC(=O)c2ccc(C#N)cc2)cc1` (repeat unit) registered a glass transition temperature of 30.00 °C.

Compound `*CC(*)C(=O)OCCCCOC(=O)c1ccc(OC(=O)c2ccc(C#N)cc2)cc1` (repeat unit) came in with a glass transition temperature of 40.00 °C.

As for `*CC(*)C(=O)OCCCCOc1ccc(/N=N/c2ccc([N+](=O)[O-])cc2)cc1` (repeat unit), the glass transition temperature stood at 36.70 °C.

As for `*CC(*)C(=O)OCCCOCC` (repeat unit), the glass transition temperature is -61.50 °C.

In turn, `*CC(*)C(=O)OCCCOc1ccc(-c2ccc(C#N)cc2)cc1` (repeat unit) returned a glass transition temperature of 54.2 °C.

Compound `*CC(*)C(=O)OCCCOc1ccc(/N=N/c2ccc([N+](=O)[O-])cc2)cc1` (repeat unit) came in with a glass transition temperature of 45.60 °C.

As for `*CC(*)C(=O)OCCCSC` (repeat unit), the glass transition temperature was -65.00 °C.

In the case of `*CC(*)C(=O)OCCCn1c2ccccc2c2ccccc21` (repeat unit), the glass transition temperature came to 83.00 °C.

In the case of `*CC(*)C(=O)OCCN(C)C` (repeat unit), the glass transition temperature was -39.00 °C.

`*CC(*)C(=O)OCCO` (repeat unit) yielded a glass transition temperature of 20.70 °C.

As to `*CC(*)C(=O)OCCOC(=O)c1cc([N+](=O)[O-])cc([N+](=O)[O-])c1` (repeat unit), the glass transition temperature came to 60.80 °C.

In turn, `*CC(*)C(=O)OCCOCC` (repeat unit) came in with a glass transition temperature of -50.00 °C.

With `*CC(*)C(=O)OCCOCC1(CC)COC1` (repeat unit), the glass transition temperature is -16.00 °C.

`*CC(*)C(=O)OCCOCCOC(F)(F)C(F)F` (repeat unit): the glass transition temperature was -40.00 °C.

With `*CC(*)C(=O)OCCOc1ccc(C(=O)Oc2ccc(OC(=O)c3ccc(OCCCCC)cc3)cc2)cc1` (repeat unit), the glass transition temperature stood at 46.00 °C.

Compound `*CC(*)C(=O)OCCOc1ccc(C(C)(C)c2ccc(OCCO)cc2)cc1` (repeat unit) registered a glass transition temperature of 22.00 °C.

For the compound `*CC(*)C(=O)OCCSC` (repeat unit), the glass transition temperature was -60.00 °C.

`*CC(*)C(=O)OCCSCC` (repeat unit) displayed a glass transition temperature of -71.00 °C.

Compound `*CC(*)C(=O)OCCc1ccccc1` (repeat unit) returned a glass transition temperature of -3.00 °C.

`*CC(*)C(=O)OCc1c(Br)c(Br)c(Br)c(Br)c1Br` (repeat unit): the glass transition temperature is 181.00 °C.

Compound `*CC(*)C(=O)Oc1c(Cl)c(Cl)c(Cl)c(Cl)c1Cl` (repeat unit) had a glass transition temperature of 145.00 °C.

`*CC(*)C(=O)Oc1c(F)c(F)c(F)c(F)c1F` (repeat unit): the glass transition temperature stood at 64.00 °C.

`*CC(*)C(=O)Oc1cc(C)cc(C)c1` (repeat unit): the glass transition temperature came out at 54.00 °C.

In turn, `*CC(*)C(=O)Oc1ccc(C(=O)OCC)cc1` (repeat unit) registered a glass transition temperature of 37.00 °C.

Compound `*CC(*)C(=O)Oc1ccc(C(=O)OCCCC)cc1` (repeat unit) registered a glass transition temperature of 13.00 °C.

On to `*CC(*)C(=O)Oc1ccc(C(=O)OCc2ccccc2)cc1` (repeat unit), for which the glass transition temperature was found to be 16.2 °C.

The compound `*CC(*)C(=O)Oc1ccc(Cl)cc1` (repeat unit) came in with a glass transition temperature of 330.00 °C.

The compound `*CC(*)C(=O)Oc1ccc([N+](=O)[O-])cc1` (repeat unit) yielded a glass transition temperature of 73.30 °C.

With `*CC(*)C(=O)Oc1cccc(C(=O)OC)c1` (repeat unit), the glass transition temperature amounted to 38.00 °C.

`*CC(*)C(=O)Oc1ccccc1C` (repeat unit) registered a glass transition temperature of 51.50 °C.

The compound `*CC(*)C(=O)c1ccc(C(C)(C)C)cc1` (repeat unit) yielded a glass transition temperature of 103.50 °C.

Regarding `*CC(*)C(=O)c1ccc(C)c(C)c1` (repeat unit), the glass transition temperature came to 42.00 °C.

The compound `*CC(*)C(=O)c1ccc(CC)cc1` (repeat unit) gave a glass transition temperature of 49.2 °C.

In the case of `*CC(*)C(=O)c1ccc(Cl)cc1` (repeat unit), the glass transition temperature is 63.00 °C.

Compound `*CC(*)C(=O)n1c2ccccc2c2ccccc21` (repeat unit) returned a glass transition temperature of 50.10 °C.

In turn, `*CC(*)C1CCC(C(C)(C)C)CC1` (repeat unit) returned a glass transition temperature of 131.00 °C.

The compound `*CC(*)C1CCCC(C)C1` (repeat unit) displayed a glass transition temperature of 141.00 °C.

On to `*CC(*)CC(C)(C)C` (repeat unit), for which the glass transition temperature stood at 190.00 °C.

The compound `*CC(*)CC(C)C` (repeat unit) showed a glass transition temperature of 35.20 °C.

`*CC(*)CC1CCCCC1` (repeat unit): the glass transition temperature was 75.00 °C.

Compound `*CC(*)CCCCCCCC` (repeat unit) had a glass transition temperature of -35.00 °C.

For the compound `*CC(*)CCCI` (repeat unit), the glass transition temperature amounted to 30.00 °C.

In turn, `*CC(*)CC[Si](C)(C)C` (repeat unit) came in with a glass transition temperature of 132.00 °C.

As to `*CC(*)CNc1ccc([N+](=O)[O-])cc1C` (repeat unit), the glass transition temperature is 151.00 °C.

`*CC(*)CO` (repeat unit) showed a glass transition temperature of 36.00 °C.

As for `*CC(*)C[Si](C)(C)C` (repeat unit), the glass transition temperature worked out at 114.00 °C.

The compound `*CC(*)N` (repeat unit) displayed a glass transition temperature of 57.00 °C.

Regarding `*CC(*)N1CCCC1=S` (repeat unit), the glass transition temperature worked out at 80.00 °C.

The compound `*CC(*)N1CCCCCC1=O` (repeat unit) gave a glass transition temperature of 174.60 °C.

`*CC(*)NC(=O)OC(C)(C)C` (repeat unit) registered a glass transition temperature of 120.00 °C.

Turning to `*CC(*)OC(=O)C(C)(C)C(C)C(C)C` (repeat unit), the glass transition temperature worked out at 55.00 °C.

Compound `*CC(*)OC(=O)C(C)(CC)C(C)(C)C` (repeat unit) returned a glass transition temperature of 120.00 °C.

Consider `*CC(*)OC(=O)C(F)(F)C(F)(F)C(F)(F)C(F)(F)C(F)(F)C(F)(F)C(F)(F)C(F)(F)C(F)(F)F` (repeat unit), for which the glass transition temperature was -18.00 °C.

`*CC(*)OC(=O)C(F)(F)C(F)(F)C(F)(F)C(F)(F)C(F)(F)F` (repeat unit) yielded a glass transition temperature of -9.00 °C.

`*CC(*)OC(=O)C(F)(F)C(F)(F)F` (repeat unit) gave a glass transition temperature of 42.00 °C.

Turning to `*CC(*)OC(=O)C1(C)CCCCC1` (repeat unit), the glass transition temperature turned out to be 86.00 °C.

`*CC(*)OC(=O)C1CCCC1` (repeat unit) registered a glass transition temperature of 36.00 °C.

With `*OC(C)C#CC#CC(C)OC(=O)c1ccc(C(*)=O)cc1` (repeat unit), the glass transition temperature was 133.00 °C.

The compound `*O[Si](C)(C)C#C[Si](C)(C)C#C[Si](C)(C)C#C[Si](C)(C)C#C[Si](C)(C)C#C[Si](*)(C)C` (repeat unit) gave a glass transition temperature of -16.10 °C.

Take `*O[Si](C)(C)C#C[Si](C)(C)C#C[Si](C)(C)C#C[Si](C)(C)C#C[Si](C)(C)C#C[Si](C)(C)C#C[Si](*)(C)C` (repeat unit): the glass transition temperature is -12.60 °C.
